≈ marks a conversion by molar mass, not a printed value. Entries after “also recorded” stand apart in the source; their conditions may differ. Like-named read-outs stand apart in the source and are kept apart here.
Assays:
[1] = test system: Hela cells; experiment: Cloning efficiency of Hela cells in vitro (colony inhibition); format: cell-based; conditions: Homo sapiens
Protocol: After treatment for 2, 8 and 24 hours, Hela cells were seeded (200 cells per plate) and the number of colonies determined 8 days later. The inhibiting dose (ID50) represents the does which produces a 50% inhibition of colonies.
^a cloning efficiency of Hela cells

[2] = test system: Moloney Sarcoma Virus (MSV); experiment: Formation of foci by Moloney Sarcoma Virus (MSV) in vitro (antiviral action); format: cell-based; conditions: Fibroblast, 72 h, read-out: ID50, inhibition of MSV foci formation
Protocol: (§1) The test compound was evaluated on mouse embryo fibroblast (MEF) cultures infected with MSV and on similar uninfected cultures. After a treatment of three days the inhibiting doses (ID50) were evaluated on cell proliferation in uninfected cultures (cytotoxic action) and on MSV foci formation in infected cultures (antiviral action).
^b inhibition of MSV foci formation

[3] = Proliferation of uninfected mouse embryo fibroblast (MEF) cultures (cytotoxic action); format: cell-based; conditions: mouse, mouse embryo fibroblasts
Protocol: as §1
^c inhibition of mouse embryo fibroblasts proliferation

[4] = test system: Ascites Sarcoma 180; experiment: Ascites Sarcoma 180 in Swiss CD1 mice, i.p.; format: in vivo, mouse (Swiss CD1); conditions: 4.5 ng/Kg (so in the source), i.p. one day after inoculation
Protocol: In Table 5 the activity of 3'-4'-epi-6'-hydroxyadriamycin on Ascites Sarcoma 180 in mice is reported. The test was carried out on groups of 10 mice (Swiss CD1). The compound under examination was administered intraperitoneally in varying doses to the test animals one day after intraperitoneal inoculation with 1×10^6 tumor cells/mouse.
The average survival time is given as percentage of the survival time of untreated animals, which is arbitrarily designated as 100%. The number of long term survivors (LTS) is also reported.

[5] = test system: L 1210 leukemia; experiment: Ascitic leukemia L 1210, treatment i.p. on day 1; format: in vivo, mouse
From the text: (§2) Activity of 4-demethoxy-4'-epi-adriamycin on
(§3) ascitic leukemias. Treatment i.p. on day 1.
(§4) ^a Median survival time, % over untreated controls
(§5) ^b Long term survivors at 60 days

[6] = test system: P 388 leukemia; experiment: Ascitic leukemia P 388, treatment i.p. on day 1; format: in vivo, mouse
From the text: as §2, §3, §4, §5

[7] = test system: solid sarcoma 180; experiment: Solid sarcoma 180, treatment i.v. on days 1 to 5; format: in vivo, mouse
From the text: as §2
solid sarcoma 180. Treatment i.v. on days 1 to 5.
Average data of 2 experiments.
^a Tumor weight on day 11, % over untreated controls.

[8] = test system: Gross leukemia; experiment: Gross leukemia, treatment i.v. on days 1 to 3; format: in vivo, mouse
From the text: On Gross leukemia (which is a systemic tumor transplanted i.v.), the increase in the life span of mice treated with the two compounds at equitoxic doses was similar.
Activity of 4-demethoxy-4'-epi-adriamycin
on Gross leukemia. Treatment i.v. on days
Average data of 2 experiments^a.
^a See legends to Table 7.

[9] = test system: several in vitro systems; experiment: Several in vitro systems, comparison with adriamycin; format: cell-based; conditions: Table 6
Protocol: (§6) The above compound was tested in comparison with adriamycin in several in vitro systems and experimental mouse tumors.

[10] = test system: experimental mouse tumors; experiment: Experimental mouse tumors (overall); format: in vivo; conditions: compared with adriamycin
Protocol: The test was carried out on groups of 10 mice (Swiss CD1). The compound under examination was administered intraperitoneally in varying doses to the test animals one day after intraperitoneal inoculation with 1×10^6 tumor cells/mouse.
as §6

SMILES: COc1cccc2c1C(=O)c1c(O)c3c(c(O)c1C2=O)C[C@@](O)(C(=O)CO)C[C@@H]3O[C@H]1C[C@H](N)[C@H](O)[C@H](C)O1 [Adriamycin, adriamycin]
- IC50 ([1]; read-out: ID50, cloning efficiency of Hela cells, 8 (hours) treatment, Table 6): 28 ng/mL (≈ 51.5 nM)
- IC50 ([1]; read-out: ID50, cloning efficiency of Hela cells, 24 (hours) treatment, Table 6): 12.5 ng/mL (≈ 23 nM)
- IC50 [2]: 0.01 ng/mL (≈ 0.0184 nM)
- CC50 at 72 h ([3]; 72 (hours) treatment, Table 6, read-out: ID50, inhibition of mouse embryo fibroblasts proliferation): 0.026 ng/mL (≈ 0.0478 nM)
- LTS (long term survivors) [4]: 1/10
- T/C % (average survival time, % of untreated) [4]: 250%
- LTS (long term survivors at 60 days) ([5]; 2.5 mg/Kg i.p. day 1): 4/11
- T/C % (median survival time, % over untreated controls) ([5]; 2.5 mg/Kg i.p. day 1): 155%
- Toxic deaths ([5]; 2.5 mg/Kg i.p. day 1): 0/11
- LTS (long term survivors at 60 days) ([5]; 5 mg/Kg i.p. day 1): 1/11
- T/C % (median survival time, % over untreated controls) ([5]; 5 mg/Kg i.p. day 1): 166%
- Toxic deaths ([5]; 5 mg/Kg i.p. day 1): 1/11
- LTS (long term survivors at 60 days) ([5]; 10 mg/Kg i.p. day 1): 3/11
- T/C % (median survival time, % over untreated controls) ([5]; 10 mg/Kg i.p. day 1): 155%
- Toxic deaths ([5]; 10 mg/Kg i.p. day 1): 7/11
- LTS (long term survivors at 60 days) ([6]; 2.5 mg/Kg i.p. day 1): 0/10
- T/C % (median survival time, % over untreated controls) ([6]; 2.5 mg/Kg i.p. day 1): 150%
- Toxic deaths ([6]; 2.5 mg/Kg i.p. day 1): 0/10
- LTS (long term survivors at 60 days) ([6]; 5 mg/Kg i.p. day 1): 0/10
- T/C % (median survival time, % over untreated controls) ([6]; 5 mg/Kg i.p. day 1): 162%
- Toxic deaths ([6]; 5 mg/Kg i.p. day 1): 0/10
- LTS (long term survivors at 60 days) ([6]; 10 mg/Kg i.p. day 1): 1/10
- T/C % (median survival time, % over untreated controls) ([6]; 10 mg/Kg i.p. day 1): 200%
- Toxic deaths ([6]; 10 mg/Kg i.p. day 1): 0/10
- T/C % (tumor weight on day 11, % over untreated controls) ([7]; 2 mg/Kg i.v. days 1 to 5): 22.2%
- Toxic deaths ([7]; 2 mg/Kg i.v. days 1 to 5): 3/19
- T/C % (tumor weight on day 11, % over untreated controls) ([7]; 2.5 mg/Kg i.v. days 1 to 5): 13.5%
- Toxic deaths ([7]; 2.5 mg/Kg i.v. days 1 to 5): 11/18
- LTS (long term survivors) ([8]; 3.5 mg/Kg i.v. days 1 to 3): 0/20
- T/C % (median survival time, % over untreated controls) ([8]; 3.5 mg/Kg i.v. days 1 to 3): 164%
- Toxic deaths ([8]; 3.5 mg/Kg i.v. days 1 to 3): 0/20
- LTS (long term survivors) ([8]; 4.5 mg/Kg i.v. days 1 to 3): 0/20
- T/C % (median survival time, % over untreated controls) ([8]; 4.5 mg/Kg i.v. days 1 to 3): 182%
- Toxic deaths ([8]; 4.5 mg/Kg i.v. days 1 to 3): 0/20
- LTS (long term survivors) ([8]; 5.5 mg/Kg i.v. days 1 to 3): 1/10
- T/C % (median survival time, % over untreated controls) ([8]; 5.5 mg/Kg i.v. days 1 to 3): 200%
- Toxic deaths ([8]; 5.5 mg/Kg i.v. days 1 to 3): 1/10
- LTS (long term survivors) ([8]; 6 mg/Kg i.v. days 1 to 3): 0/10
- T/C % (median survival time, % over untreated controls) ([8]; 6 mg/Kg i.v. days 1 to 3): 214%
- Toxic deaths ([8]; 6 mg/Kg i.v. days 1 to 3): 3/10

SMILES: C[C@@H]1O[C@@H](O[C@H]2C[C@](O)(C(=O)CO)Cc3c(O)c4c(c(O)c32)C(=O)c2ccccc2C4=O)C[C@H](N)[C@H]1O [4-demethoxy-4'-epi-adriamycin]
- IC50 ([1]; 2 (hours) treatment, Table 6, read-out: ID50, cloning efficiency of Hela cells): 0.35 ng/mL (≈ 0.682 nM)
- IC50 ([1]; 8 (hours) treatment, Table 6, read-out: ID50, cloning efficiency of Hela cells): 0.1 ng/mL (≈ 0.195 nM)
- IC50 ([1]; 24 (hours) treatment, Table 6, read-out: ID50, cloning efficiency of Hela cells): 0.03 ng/mL (≈ 0.0584 nM)
- IC50 [2]: < 0.003 ng/mL
- CC50 at 72 h [3]: < 0.003 ng/mL
- LTS (long term survivors at 60 days) ([5]; 0.25 mg/Kg i.p. day 1): 0/11
- T/C % (median survival time, % over untreated controls) ([5]; 0.25 mg/Kg i.p. day 1): 155%
- Toxic deaths ([5]; 0.25 mg/Kg i.p. day 1): 0/11
- LTS (long term survivors at 60 days) ([5]; 0.5 mg/Kg i.p. day 1): 2/11
- T/C % (median survival time, % over untreated controls) ([5]; 0.5 mg/Kg i.p. day 1): 166%
- Toxic deaths ([5]; 0.5 mg/Kg i.p. day 1): 0/11
- LTS (long term survivors at 60 days) ([5]; 1 mg/Kg i.p. day 1): 0/11
- T/C % (median survival time, % over untreated controls) ([5]; 1 mg/Kg i.p. day 1): 133%
- Toxic deaths ([5]; 1 mg/Kg i.p. day 1): 11/11
- antitumor activity at the optimal (non-toxic) dose vs adriamycin ([5]; L 1210): comparable to that of adriamycin
- LTS (long term survivors at 60 days) ([6]; 0.25 mg/Kg i.p. day 1): 0/10
- T/C % (median survival time, % over untreated controls) ([6]; 0.25 mg/Kg i.p. day 1): 143%
- Toxic deaths ([6]; 0.25 mg/Kg i.p. day 1): 0/10
- LTS (long term survivors at 60 days) ([6]; 0.5 mg/Kg i.p. day 1): 1/10
- T/C % (median survival time, % over untreated controls) ([6]; 0.5 mg/Kg i.p. day 1): 162%
- Toxic deaths ([6]; 0.5 mg/Kg i.p. day 1): 1/10
- LTS (long term survivors at 60 days) ([6]; 1 mg/Kg i.p. day 1): 0/10
- T/C % (median survival time, % over untreated controls) ([6]; 1 mg/Kg i.p. day 1): 162%
- Toxic deaths ([6]; 1 mg/Kg i.p. day 1): 8/10
- antitumor activity at the optimal (non-toxic) dose vs adriamycin ([6]; P 388): comparable to that of adriamycin
- T/C % (tumor weight on day 11, % over untreated controls) ([7]; 0.06 mg/Kg i.v. days 1 to 5): 87.3%
- Toxic deaths ([7]; 0.06 mg/Kg i.v. days 1 to 5): 0/10
- T/C % (tumor weight on day 11, % over untreated controls) ([7]; 0.12 mg/Kg i.v. days 1 to 5): 85.1%
- Toxic deaths ([7]; 0.12 mg/Kg i.v. days 1 to 5): 2/16
- T/C % (tumor weight on day 11, % over untreated controls) ([7]; 0.25 mg/Kg i.v. days 1 to 5): 41.9%
- Toxic deaths ([7]; 0.25 mg/Kg i.v. days 1 to 5): 4/19
- Toxic deaths ([7]; 0.5 mg/Kg i.v. days 1 to 5): 9/9
- inhibition of tumor growth on the eleventh day vs adriamycin ([7]; equitoxic doses): slightly lower than that of adriamycin
- LTS (long term survivors) ([8]; 0.35 mg/Kg i.v. days 1 to 3): 2/20
- T/C % (median survival time, % over untreated controls) ([8]; 0.35 mg/Kg i.v. days 1 to 3): 153%
- Toxic deaths ([8]; 0.35 mg/Kg i.v. days 1 to 3): 0/10
- LTS (long term survivors) ([8]; 0.45 mg/Kg i.v. days 1 to 3): 0/20
- T/C % (median survival time, % over untreated controls) ([8]; 0.45 mg/Kg i.v. days 1 to 3): 196%
- Toxic deaths ([8]; 0.45 mg/Kg i.v. days 1 to 3): 0/20
- LTS (long term survivors) ([8]; 0.55 mg/Kg i.v. days 1 to 3): 0/10
- T/C % (median survival time, % over untreated controls) ([8]; 0.55 mg/Kg i.v. days 1 to 3): 186%
- Toxic deaths ([8]; 0.55 mg/Kg i.v. days 1 to 3): 0/10
- LTS (long term survivors) ([8]; 0.6 mg/Kg i.v. days 1 to 3): 0/10
- T/C % (median survival time, % over untreated controls) ([8]; 0.6 mg/Kg i.v. days 1 to 3): 214%
- Toxic deaths ([8]; 0.6 mg/Kg i.v. days 1 to 3): 1/10
- LTS (long term survivors) ([8]; 0.65 mg/Kg i.v. days 1 to 3): 0/10
- T/C % (median survival time, % over untreated controls) ([8]; 0.65 mg/Kg i.v. days 1 to 3): 207%
- Toxic deaths ([8]; 0.65 mg/Kg i.v. days 1 to 3): 0/10
- increase in life span vs adriamycin ([8]; equitoxic doses): similar
- in vitro activity compared with adriamycin [9]: definitely more active than adriamycin
- antitumor activity ([10]; all the systems tested): remarkable antitumor activity; also recorded: higher antitumor activity in mice, similar to adriamycin
- factor by which active doses are lower than those of adriamycin ([10]; mice): 10 times

Reference: patent publication US4112076A, “Epi-daunomycin and epi-adriamycin compounds and method of use” (priority 1975, dated 1978)
